The assay has as its system SMN protein. The experiment in a line: cellular SMN ELISA (SMN protein elevation). Format: cell-based. The note with it: myoblast cell line derived from SMNdelta7 mouse model; 24 hours compound treatment; concentration range 100 pM-10 uM. The method, then: A cellular SMN ELISA was used to measure the effects of low molecular weight compounds on SMN protein elevation. Cells from a myoblast cell line derived from the SMNdelta7 mouse model (kind gift from Steve Burden, NYU) were seeded into a 384-well plate at a density of 3000 cells/well and treated with compounds for 24 hours. ELISA capture plates were prepared by coating 384-well plates (Immulon 4HBX) with 0.5 ug/mL of anti-SMN mAb (BD Science, Catalog number 610647) at 4° C. overnight. The plates were washed 5 times with 110 uL of PBS-Tween (0.05% Tween-20, PBST), blocked with 100 uL of 1% BSA in PBST for 2 hours and washed (5 times) with 100 uL of PBST. After 24 hours of compound treatment cells were lysed in a modified RIPA-buffer, on ice for 1 hour. 20 uL of lysate and 20 uL of 1% BSA were then added to the ELISA capture plates and incubated at 4° C. overnight. Plates were washed (5 times) with PBST and then incubated with 1:100 dilution of primary rabbit anti-SMN polyclonal antibody (Santa cruz, Catalog number SC-15320) at room temperature for 1 hour and subsequently washed (5 times) with 110 uL of PBST. This was followed by addition of 1:100 Goat anti-Rabbit IgG-HRP linked (Cell Signaling, Catalog number 7074) secondary antibody for 1 hour. Plates were then washed with PBST and incubated with 40 uL TMB substrate (Cell Signaling, Catalog number 7004L) at room temperature for 1-10 minutes with shaking. The reaction was stopped by addition of 40 uL of stop solution (Cell signaling, Catalog number 7002L) and absorption was measured at 450 nm. Data was reported as fold activation over DMSO control and EC50. ELISA assay condition: compound concentration range 100 pM-10 uM.
Background: An ELISA detects its analyte on a solid surface through an enzyme-linked reagent.

Broadly, the EC50 is the concentration at which the effect is half-maximal. Lower therefore signals a more potent agent.

Consider `CN(c1nnc(-c2cc(F)c(-c3cn[nH]c3)cc2F)s1)C1CC(C)(C)NC(C)(C)C1` [Example 50, 5-(2,5-difluoro-4-(1H-pyrazol-4-yl)phenyl)-N-methyl-N-(2,2,6,6-tetramethylpiperidin-4-yl)-1,3,4-thiadiazol-2-amine], for which the concentration giving a half-maximal response (EC50) came to 20 nM and the “SMN Activity Fold (fold activation over DMSO control)” value (“SMN Activity Fold” below) came to 3.07 fold.

For `CN(c1nnc(-c2cc(F)c(-c3ccn[nH]3)cc2F)s1)C1CC(C)(C)NC(C)(C)C1` [Example 51, 5-(2,5-difluoro-4-(1H-pyrazol-5-yl)phenyl)-N-methyl-N-(2,2,6,6-tetramethylpiperidin-4-yl)-1,3,4-thiadiazol-2-amine], the EC50 was 85 nM and the “SMN Activity Fold” value worked out at 2.86 fold.

As to `CN(c1nnc(-c2c(F)cc(-c3cn[nH]c3)cc2F)s1)C1CC(C)(C)NC(C)(C)C1` [Example 52, 5-(2,6-difluoro-4-(1H-pyrazol-4-yl)phenyl)-N-methyl-N-(2,2,6,6-tetramethylpiperidin-4-yl)-1,3,4-thiadiazol-2-amine], a half-maximal effect (EC50) was put at 61 nM and the “SMN Activity Fold” value is given as 3.30 fold.

On to `Fc1cc(-c2nnc(N3C[C@H]4CNC[C@H]4C3)s2)c(F)cc1-c1cn[nH]c1` [Example 53, 2-(2,5-difluoro-4-(1H-pyrazol-4-yl)phenyl)-5-((3aR,6aS)-hexahydropyrrolo[3,4-c]pyrrol-2(1H)-yl)-1,3,4-thiadiazole], for which the response was half-maximal at 70 nM (EC50) and the “SMN Activity Fold” value worked out at 2.56 fold.

In the case of `CN(c1nnc(-c2cc(F)c(-c3cn[nH]c3)cc2Cl)s1)C1CC(C)(C)NC(C)(C)C1` [Example 54, 5-(2-chloro-5-fluoro-4-(1H-pyrazol-4-yl)phenyl)-N-methyl-N-(2,2,6,6-tetramethylpiperidin-4-yl)-1,3,4-thiadiazol-2-amine], the EC50 stood at 47 nM and the “SMN Activity Fold” value was 3.16 fold.

In the case of `CN(c1nnc(-c2ncc(-c3cn[nH]c3)cc2F)s1)C1CC(C)(C)NC(C)(C)C1` [Example 55, 5-(3-fluoro-5-(1H-pyrazol-4-yl)pyridin-2-yl)-N-methyl-N-(2,2,6,6-tetramethylpiperidin-4-yl)-1,3,4-thiadiazol-2-amine], a half-maximal effect (EC50) was put at 1010 nM and the “SMN Activity Fold” value amounted to 2.75 fold.

Turning to `CN(c1nnc(-c2ccc(-c3ccnc(N)n3)cc2Cl)s1)C1CC(C)(C)NC(C)(C)C1` [Example 56, 5-(4-(2-aminopyrimidin-4-yl)-2-chlorophenyl)-N-methyl-N-(2,2,6,6-tetramethylpiperidin-4-yl)-1,3,4-thiadiazol-2-amine], a half-maximal response (EC50) required 41 nM and the “SMN Activity Fold” value was determined as 2.47 fold.

Turning to `CN(c1nnc(-c2cc(-c3ccnc(N)n3)ccc2Cl)s1)C1CC(C)(C)NC(C)(C)C1` [Example 57, 5-(5-(2-aminopyrimidin-4-yl)-2-chlorophenyl)-N-methyl-N-(2,2,6,6-tetramethylpiperidin-4-yl)-1,3,4-thiadiazol-2-amine], the 50% effective concentration (EC50) worked out at 94 nM and the “SMN Activity Fold” value stood at 2.55 fold.

In the case of `Cc1nc(C)c(-c2cc(F)c(-c3nnc(N(C)C4CC(C)(C)NC(C)(C)C4)s3)cc2F)s1` [Example 58, 5-(4-(2,4-dimethylthiazol-5-yl)-2,5-difluorophenyl)-N-methyl-N-(2,2,6,6-tetramethylpiperidin-4-yl)-1,3,4-thiadiazol-2-amine], the midpoint of the response, the EC50, lay at 386 nM and the “SMN Activity Fold” value was determined as 2.41 fold.

Consider `Cc1nc(C)c(-c2ccc(-c3nnc(N(C)C4CC(C)(C)NC(C)(C)C4)s3)c(F)c2F)s1` [Example 59, 5-(4-(2,4-dimethylthiazol-5-yl)-2,3-difluorophenyl)-N-methyl-N-(2,2,6,6-tetramethylpiperidin-4-yl)-1,3,4-thiadiazol-2-amine], for which the EC50 amounted to 1500 nM and the “SMN Activity Fold” value is 2.69 fold.

With `CN(c1nnc(-c2c(O)cc(-c3ccn(C)c(=O)c3)cc2OC(F)(F)F)s1)C1CC(C)(C)NC(C)(C)C1` [Example 60, 4-(3-hydroxy-4-(5-(methyl(2,2,6,6-tetra-methylpiperidin-4-yl)amino)-1,3,4-thiadiazol-2-yl)-5-(trifluoromethoxy)phenyl)-1-methylpyridin-2(1H)-one], a half-maximal response (EC50) required 53 nM and the “SMN Activity Fold” value amounted to 2.69 fold.

Consider `COc1cc(-c2cn[nH]c2)cc(F)c1-c1nnc(N(C)C2CC(C)(C)NC(C)(C)C2)s1` [Example 61, 5-(2-fluoro-6-methoxy-4-(1H-pyrazol-4-yl)phenyl)-N-methyl-N-(2,2,6,6-tetramethylpiperidin-4-yl)-1,3,4-thiadiazol-2-amine], for which the EC50 is 95 nM and the “SMN Activity Fold” value is reported as 2.36 fold.

As to `COc1cc(-c2cn[nH]c2)cc(F)c1-c1nnc(N2C[C@H]3CN(C)C[C@H]3C2)s1` [Example 62, 2-(2-fluoro-6-methoxy-4-(1H-pyrazol-4-yl)phenyl)-5-((3aR,6aS)-5-methylhexahydro-pyrrolo[3,4-c]pyrrol-2(1H)-yl)-1,3,4-thiadiazole], the EC50 worked out at 3640 nM and the “SMN Activity Fold” value was found to be 2.01 fold.

`COc1cc(-c2cn[nH]c2)c(F)c(F)c1-c1nnc(N(C)C2CC(C)(C)NC(C)(C)C2)s1` [Example 63, 5-(2,3-difluoro-6-methoxy-4-(1H-pyrazol-4-yl)phenyl)-N-methyl-N-(2,2,6,6-tetramethyl-piperidin-4-yl)-1,3,4-thiadiazol-2-amine]: it took 47 nM to reach a half-maximal effect (EC50) and the “SMN Activity Fold” value is 3.13 fold.

Regarding `COc1ccc2c(c1)CCN(c1nnc(N(C)C3CC(C)(C)NC(C)(C)C3)s1)C2=O` [Example 64, 6-methoxy-2-(5-(methyl(2,2,6,6-tetramethylpiperidin-4-yl)amino)-1,3,4-thiadiazol-2-yl)-3,4-dihydroisoquinolin-1(2H)-one], the half-maximal effective concentration (EC50) was 1620 nM and the “SMN Activity Fold” value was determined as 2.51 fold.

In the case of `CN(c1nnc(-c2ccc(-n3cccn3)cc2Cl)s1)C1CC(C)(C)NC(C)(C)C1` [Example 65, 5-(2-chloro-4-(1H-pyrazol-1-yl)phenyl)-N-methyl-N-(2,2,6,6-tetramethylpiperidin-4-yl)-1,3,4-thiadiazol-2-amine], the EC50 turned out to be 273 nM and the “SMN Activity Fold” value is listed as 2.37 fold.

As to `CN(c1nnc(-c2ccc(-n3ccnn3)cc2Cl)s1)C1CC(C)(C)NC(C)(C)C1` [Example 66, 5-(2-chloro-4-(1H-1,2,3-triazol-1-yl)phenyl)-N-methyl-N-(2,2,6,6-tetramethylpiperidin-4-yl)-1,3,4-thiadiazol-2-amine], the 50% effective concentration (EC50) was determined as 130 nM and the “SMN Activity Fold” value is 2.32 fold.

`CN(c1nnc(-c2ccc(-n3nccn3)cc2Cl)s1)C1CC(C)(C)NC(C)(C)C1` [Example 67, 5-(2-chloro-4-(2H-1,2,3-triazol-2-yl)phenyl)-N-methyl-N-(2,2,6,6-tetramethylpiperidin-4-yl)-1,3,4-thiadiazol-2-amine]: the EC50 came out at 159 nM and the “SMN Activity Fold” value is on record as 2.45 fold.

Take `CN(c1nnc(-c2ccc(-n3cncn3)cc2Cl)s1)C1CC(C)(C)NC(C)(C)C1` [Example 68, 5-(2-chloro-4-(1H-1,2,4-triazol-1-yl)phenyl)-N-methyl-N-(2,2,6,6-tetramethylpiperidin-4-yl)-1,3,4-thiadiazol-2-amine]: the midpoint of the response, the EC50, lay at 79 nM and the “SMN Activity Fold” value is 2.64 fold.

Regarding `CN(c1nnc(-c2ccc(-n3ccc(N)n3)cc2Cl)s1)C1CC(C)(C)NC(C)(C)C1` [Example 69, 5-(4-(3-amino-1H-pyrazol-1-yl)-2-chlorophenyl)-N-methyl-N-(2,2,6,6-tetramethylpiperidin-4-yl)-1,3,4-thiadiazol-2-amine], a half-maximal effect (EC50) was put at 171 nM and the “SMN Activity Fold” value worked out at 2.44 fold.

On to `CN1C[C@@H]2CN(c3nnc(-c4ccc(-n5ccnc5)cc4Cl)s3)C[C@@H]2C1` [Example 70, 2-(2-chloro-4-(1H-imidazol-1-yl)phenyl)-5-((3aR,6aS)-5-methylhexahydropyrrolo[3,4-c]pyrrol-2(1H)-yl)-1,3,4-thiadiazole], for which a half-maximal response (EC50) required 2570 nM and the “SMN Activity Fold” value was 2.17 fold.

In the case of `CN(c1nnc(-c2ccc(-n3ccnc3)cc2Cl)s1)C1CC(C)(C)NC(C)(C)C1` [Example 71, 5-(2-chloro-4-(1H-imidazol-1-yl)phenyl)-N-methyl-N-(2,2,6,6-tetramethylpiperidin-4-yl)-1,3,4-thiadiazol-2-amine], the 50% effective concentration (EC50) was found to be 32 nM and the “SMN Activity Fold” value is 2.40 fold.

Regarding `CN(c1nnc(-c2ccc(-n3ccnc3)cc2F)s1)C1CC(C)(C)NC(C)(C)C1` [Example 72, 5-(2-fluoro-4-(1H-imidazol-1-yl)phenyl)-N-methyl-N-(2,2,6,6-tetramethylpiperidin-4-yl)-1,3,4-thiadiazol-2-amine], the EC50 came out at 91 nM and the “SMN Activity Fold” value is recorded as 2.50 fold.

For the origin of these results see patent US9040712B2, “Thiadiazole analogs thereof and methods for treating SMN-deficiency-related-conditions” (NOVARTIS AG, priority 2013, dated 2015).
